Patent publication US8497254B2, “Oxadiazole derivatives as sphingosine 1-phosphate (S1P) receptor modulators” (Allergan, Inc., priority 2010, dated 2013)

Target: T1, human S1P1 receptor (Homo sapiens, UniProt P21453)
T1 construct: expressed in transfected cells; membranes were used
Assay: GTP γ35S binding assay for S1P1 activity
Type: biochemical
Details: activity potency from GTP γ35S binding; membrane protein from cells stably expressing the S1P1 receptor; 30 min at 25° C.
Experimental: Compounds were synthesized and tested for S1P1 activity using the GTP γ^35S binding assay. These compounds may be assessed for their ability to activate or block activation of the human S1P1 receptor in cells stably expressing the S1P1 receptor.
GTP γ^35S binding was measured in the medium containing (mM) HEPES 25, pH 7.4, MgCl2 10, NaCl 100, dithitothreitol 0.5, digitonin 0.003%, 0.2 nM GTP γ^35S, and 5 μg membrane protein in a volume of 150 μl. Test compounds were included in the concentration range from 0.08 to 5,000 nM unless indicated otherwise. Membranes were incubated with 100 μM 5′-adenylylimmidodiphosphate for 30 min, and subsequently with 10 μM GDP for 10 min on ice. Drug solutions and membrane were mixed, and then reactions were initiated by adding GTP γ^35S and continued for 30 min at 25° C. Reaction mixtures were filtered over Whatman GF/B filters under vacuum, and washed three times with 3 mL of ice-cold buffer (HEPES 25, pH7.4, MgCl2 10 and NaCl 100). Filters were dried and mixed with scintillant, and counted for ^35S activity using a β-counter. Agonist-induced GTP γ^35S binding was obtained by subtracting that in the absence of agonist. Binding data were analyzed using a non-linear regression method. In case of antagonist assay, the reaction mixture contained 10 nM S1P in the presence of test antagonist at concentrations ranging from 0.08 to 5000 nM.

T1 sequence (P21453 whole entry): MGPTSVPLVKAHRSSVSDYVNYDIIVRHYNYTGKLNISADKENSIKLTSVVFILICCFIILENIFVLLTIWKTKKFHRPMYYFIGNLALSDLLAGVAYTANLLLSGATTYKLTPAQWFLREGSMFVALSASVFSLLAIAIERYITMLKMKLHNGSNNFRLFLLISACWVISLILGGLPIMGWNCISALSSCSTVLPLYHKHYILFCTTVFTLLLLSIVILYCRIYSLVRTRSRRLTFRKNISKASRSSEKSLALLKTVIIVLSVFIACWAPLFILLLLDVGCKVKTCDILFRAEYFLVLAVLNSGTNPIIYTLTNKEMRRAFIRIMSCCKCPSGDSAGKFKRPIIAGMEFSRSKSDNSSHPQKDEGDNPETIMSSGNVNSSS

First: Cc1ccc(CC(c2cccc(Cl)c2)c2nc(-c3ccc(C(=O)NCCC(=O)O)cc3)no2)cc1C (stereo not shown) [Compound 9, 3-[(4-{5-[1-(3-chlorophenyl)-2-(3,4-dimethylphenyl)ethyl]-1,2,4-oxadiazol-3-yl}benzoyl)amino]propanoic acid]
Second: Cc1ccc(CC(c2cccc(Cl)c2)c2nc(-c3ccc(CNCCC(=O)O)cc3)no2)cc1C (stereo not shown) [Compound 1, 3-[(4-{5-[1-(3-chlorophenyl)-2-(3,4-dimethylphenyl)ethyl]-1,2,4-oxadiazol-3-yl}benzyl)amino]propanoic acid]
The EC50 of the first is 2.9-fold higher: 911 nM for the first, 312 nM for the second.

First: Cc1ccc(CC(c2cccc(C(F)(F)F)c2)c2nc(-c3ccc(CNCCC(=O)O)cc3)no2)cc1C (stereo not shown) [Compound 12, 3-{[4-(5-{2-(3,4-dimethylphenyl)-1-[3-(trifluoromethyl)phenyl]ethyl}-1,2,4-oxadiazol-3-yl)benzyl]amino}propanoic acid]
Second: Cc1ccc(CC(c2cccc(F)c2)c2nc(-c3ccc(CNCCC(=O)O)cc3)no2)cc1C (stereo not shown) [Compound 3, 3-[(4-{5-[2-(3,4-dimethylphenyl)-1-(3-fluorophenyl)ethyl]-1,2,4-oxadiazol-3-yl}benzyl)amino]propanoic acid]
The EC50 of the first is 1.8-fold lower: 336 nM for the first, 598 nM for the second.

Going from `Cc1ccc(CC(c2ccc(Cl)cc2)c2nc(-c3ccc(CCC(=O)O)cc3C)no2)cc1C` (stereo not shown) [Compound 7, 3-(4-{5-[1-(4-chlorophenyl)-2-(3,4-dimethylphenyl)ethyl]-1,2,4-oxadiazol-3-yl}-3-methylphenyl)propanoic acid] to `Cc1ccc(CC(c2cccc(Cl)c2)c2nc(-c3ccc(CCC(=O)O)cc3C)no2)cc1C` (stereo not shown) [Compound 6, 3-(4-{5-[1-(3-chlorophenyl)-2-(3,4-dimethylphenyl)ethyl]-1,2,4-oxadiazol-3-yl}-3-methylphenyl)propanoic acid], the EC50 rises from 89.3 nM to 1060 nM (12-fold).

First: Cc1ccc(NC(c2cccc(Cl)c2)c2nc(-c3ccc(CNCCC(=O)O)cc3)no2)cc1C (stereo not shown) [3-{[4-(5-{(3-chlorophenyl)[(3,4-dimethylphenyl)amino]methyl}-1,2,4-oxadiazol-3-yl)benzyl]amino}propanoic acid]
Second: Cc1ccc(CC(c2cccc(Cl)c2)c2nc(-c3ccc(CNCCCP(=O)(O)O)cc3)no2)cc1C (stereo not shown) [Compound 2, {3-[(4-{5-[1-(3-chlorophenyl)-2-(3,4-dimethylphenyl)ethyl]-1,2,4-oxadiazol-3-yl}benzyl)amino]propyl}phosphonic acid]
The EC50 of the first is 2.5-fold lower: 1.5 nM for the first, 3.77 nM for the second. The first is the more potent here.

Going from `Cc1ccc(CC(c2cc(F)cc(F)c2)c2nc(-c3ccc(CNCCCP(=O)(O)O)cc3)no2)cc1C` (stereo not shown) [Compound 11, {3-[(4-{5-[1-(3,5-difluorophenyl)-2-(3,4-dimethylphenyl)ethyl]-1,2,4-oxadiazol-3-yl}benzyl)amino]propyl}phosphonic acid] to `Cc1ccc(CC(c2cc(F)cc(F)c2)c2nc(-c3ccc(CNCCC(=O)O)cc3)no2)cc1C` (stereo not shown) [Compound 10, 3-[(4-{5-[1-(3,5-difluorophenyl)-2-(3,4-dimethylphenyl)ethyl]-1,2,4-oxadiazol-3-yl}benzyl)amino]propanoic acid], the EC50 rises from 5.27 nM to 1100 nM (210-fold).

Going from `Cc1ccc(CC(c2cccc(F)c2)c2nc(-c3ccc(CNCCCP(=O)(O)O)cc3)no2)cc1C` (stereo not shown) [Compound 4, {3-[(4-{5-[2-(3,4-dimethylphenyl)-1-(3-fluorophenyl)ethyl]-1,2,4-oxadiazol-3-yl}benzyl)amino]propyl}phosphonic acid] to `Cc1cc(C)cc(C(Cc2ccc(C)c(C)c2)c2nc(-c3ccc(CNCCC(=O)O)cc3)no2)c1` (stereo not shown) [Compound 13, 3-[(4-{5-[2-(3,4-dimethylphenyl)-1-(3,5-dimethylphenyl)ethyl]-1,2,4-oxadiazol-3-yl}benzyl)amino]propanoic acid], the EC50 rises from 4.04 nM to 535 nM (130-fold).

`Cc1cccc(CC(c2cccc(Cl)c2)c2nc(-c3ccc(CCC(=O)O)cc3C)no2)c1` (stereo not shown) [Compound 8, 3-(4-{5-[1-(3-chlorophenyl)-2-(3-methylphenyl)ethyl]-1,2,4-oxadiazol-3-yl}-3-methylphenyl)propanoic acid] showed an EC50 of 17.1 nM.
